PMC12286057, “An Investigation of 5-Halogenated N-Indolylsulfonyl-2-fluorophenol Derivatives as Aldose Reductase Inhibitors” (Medicines, 2025)

Columns and labels:
[1] = biological target: T1, partially purified ALR2 from rat lenses (Rattus norvegicus, UniProt P07943); test: ALR2 enzymatic assay (NADPH consumption, DL-glyceraldehyde substrate); format: biochemical; details: for fold activity loss compared to lead compound IIc: IC50 ratio versus IIc, rat ALR2 enzyme; for fold less strong ARI than sorbinil and epalrestat: IC50 ratio versus the reference drugs sorbinil and epalrestat; for inhibition at 10 µM: cut-off concentration of 10 μM; for IC50: partially purified ALR2 from rat lenses, 0.1–10 μM concentrations
T1 construct: Supernatant containing the partially purified ALR2 enzyme was used directly or stored at −80 °C for less than 24 h; from tissue; host or cells: eye lenses of Fischer-344 rats (homogenate supernatant after 40% ammonium sulfate precipitation)
Description: The ALR2 enzyme was isolated from rat lenses of the Fischer-344 series. Laboratory animal handling and experiment conduct was carried out in accordance with the Law on the Protection of Laboratory Animals (Hellenic Republic) and was declared to the Veterinary Authority of the Republic of Greece. The animal study protocol was approved by the Ethics Committee of the Prefecture of Central Macedonia (protocol code 270079/2500) for studies involving animals.
Eye lenses were quickly removed from Fischer-344 rats following euthanasia. The enzyme was partially purified by a well-established and previously reported procedure. The lenses were removed from euthanized rats and were quickly stored at −80 °C until used. Great care was taken to clean the lenses mechanically from other ocular tissues and debris. The lenses were homogenized in 5 vol of cold ultrapure water (0.5 mL per lens), and the homogenate was centrifuged at 10,000 × rpm at 0–4 °C for 15 min. The supernatant was then collected, precipitated with a saturated solution of ammonium sulfate (40% saturation), and centrifuged at 10,000 × rpm at 0–4 °C for 15 min. Supernatant containing the partially purified ALR2 enzyme was used directly or stored at −80 °C for less than 24 h.
ALR2 activity was assayed spectrophotometrically by determining NADPH consumption (ε340nm = 6300 M^−1 × cm^−1). The examined compounds were dissolved in DMSO (1% final concentration) at appropriate final concentrations (0.1–10 μM). The effects of the compounds on enzyme activity were determined by including the inhibitor in the reaction mixture at required concentrations. At the same concentration, the inhibitor was included in the reference blank. The reference blank contained all the following reagents except the substrate to correct NADPH oxidation, which is not associated with the substrate’s reduction. Briefly, 2.4 mL of 66.7 mM phosphate Na^+/K^+ assay buffer (pH = 6.2), 100 μL of 3.2 mM NADPH solution in assay buffer, 300 μL of enzyme supernatant, 90 μL of ultrapure water, and 10 μL of solution of tested inhibitors in DMSO in appropriate concentration or pure DMSO (served as control) were mixed in that order in a glass vial. Subsequently, 1 mL of that mixture was transferred to each 1.5 mL-UV quartz cuvette (10 mm path length), and 100 μL of assay buffer (reference blank) or 110 mM DL-glyceraldehyde solution (10 mM final concentration) in assay buffer was added to initiate the enzyme reaction. ALR2 activity was assayed by monitoring NADPH consumption (0.1 mM final concentration) at 340 nm for 5 min after incubating reaction mixtures for 1 min at 30 °C. […] IC50 values were determined by least-squares regression analysis of the semi-logarithmic dose–inhibition curves. Each curve was generated using at least five compounds’ concentrations, causing inhibition from at least 15–80% in at least three triplicate repetitions.

Caco-2 = tested on: Caco-2; design: method as in Mylari et al. [49]; details: ref Mylari et al. [49]; cited from earlier work
ALR2 = tested on: ALR2; design: method as in Mylari et al. [49]; details: preclinical studies; ref Mylari et al. [49]; cited from earlier work
[2] = design: method as in Mylari et al. [49]; details: ref Mylari et al. [49], cited from earlier work
diabetic rats = tested on: diabetic rats; design: method as in Mylari et al. [49]; details: lens, retina and sciatic nerve of diabetic rats; ref Mylari et al. [49]; cited from earlier work

Compound	fold activity loss compared to lead compound IIc [1] [fold]	fold less strong ARI than sorbinil and epalrestat [1] [fold]	inhibition at 10 µM [1] [%]	IC50 [1] [nM]	ALR2 inhibitory activity at 1 μM ([1]; lower dose of 1 μM)	Caco-2 transcellular permeability (Caco-2)	IC50 (ALR2) [nM]	oral bioavailability ([2]; at 2 mg/kg) [%]	plasma half-life ([2]; preclinical studies) [h]	in vivo normalization of elevated sorbitol and fructose (diabetic rats)
O=S(=O)(c1ccc(O)c(F)c1)n1ccc2cc(F)ccc21 [Compound 3a, 4-((5-fluoro-1H-indol-1-yl)sulfonyl)-2-fluorophenol]	3.1	12	74.5 ± 2.6	3020 ± 450						
Oc1ccc(-n2ccc3cc(Cl)ccc32)cc1F [Compound 3d, 4-(5-chloro-1H-indol-1-yl)-2-fluorophenol]			43.7 ± 1.3	> 10000	completely inactive					
Cc1c(S(=O)(=O)c2ccc(=O)[nH]n2)oc2ccc(Cl)cc12 [CP-744809, 6-(5-chloro-3-methylbenzofuran-2-sulfonyl)-2H-pyridazin-3-one]						> 10^−5 cm/s	0.84	98	23 to 29	remarkable efficiency in vivo in normalizing elevated sorbitol and fructose
O=S(=O)(c1ccc(O)c(F)c1)n1ccc2cc(Br)ccc21 [Compound 3c, 4-((5-bromo-1H-indol-1-yl)sulfonyl)-2-fluorophenol]	1.9	7.4	80.6 ± 2	1850 ± 150						
O=S(=O)(c1ccc(O)c(F)c1)n1ccc2cc(Cl)ccc21 [Compound 3b, 4-((5-chloro-1H-indol-1-yl)sulfonyl)-2-fluorophenol]	2.3	9	77.6 ± 1.3	2220 ± 280						
